Assay results taken from paper PMC9743128, “Phenotype-based screening rediscovered benzopyran-embedded microtubule inhibitors as anti-neuroinflammatory agents by modulating the tubulin–p65 interaction” (Experimental & Molecular Medicine, 2022).

Assays:
[1] = target: T1, p65–α-tubulin interaction (Mus musculus, UniProt P05213+P99024); experiment: Immunoprecipitation of p65, IκB and α-tubulin; type: cell-based, murine; conditions: 1 h treatment, 10 μM
T1 construct: endogenous in cells
Procedure: After a 1-h incubation in the absence or presence of SB26019, cells were harvested and lysed for 1 h on ice with IP lysis buffer {50 mM Tris–HCl pH 8.0 (Acros; #77-86-1), 200 mM NaCl, 0.5% NP40 (Sigma; #I8896), and 1× protease inhibitor cocktail (Roche; #11873580001)}. The protein concentration was measured using a bicinchoninic acid (BCA) protein assay kit (Thermo; #23225). Then, 150 μg of the lysates were incubated with 1.5 μg of anti-p65 antibody (Abcam; ab16502), anti-IκB antibody (CST; #4814), or α-tubulin antibody (CST; #3873) at 4 °C overnight. Subsequently, the proteins of interest were precipitated using protein A and G beads (Santa Cruz; sc-2001, sc-2002). Samples were analyzed with western blotting using anti-p65, IκB, and α-tubulin primary antibodies.
To understand the inhibitory mechanism of p65 nuclear translocation by SB26019, the expression levels of p65, IκB, and tubulin monomers were monitored upon SB26019 treatment in murine macrophage cells. […] Additionally, nuclear translocation of p65 was inhibited by SB26019 treatment despite an increase in phospho-IκB and a decrease in total IκB (Fig. 3e). […] Consequently, IκB is released from p65 and degraded by the proteasome. […] To test this hypothesis, we monitored protein‒protein interactions among p65, IκB, and tubulin with immunoprecipitation. […]

tubulin = target: T2, tubulin (Sus scrofa, UniProt P02550+P02554); experiment: Tubulin polymerization assay; type: biochemical; conditions: 1 μM compound
T2 construct: purchased Cytoskeleton BK006P
Procedure: The tubulin polymerization inhibition efficacy of the compounds was measured by a tubulin polymerization assay kit (Cytoskeleton; BK006P) according to the manufacturer’s manual. Absorbance at 340 nm was measured to observe the formation of tubulin polymers using a microplate reader (Biotek; Synergy).
Supplementary Fig. 4. Tubulin polymerization inhibition by compounds 1–13 (1 μM). In the presence or absence of compounds, tubulin was incubated to polymerize at room temperature. Absorbance at 340 nm was measured in a time-dependent manner for monitoring the rate of tubulin polymerization.
Supplementary Table 2. Tubulin polymerization inhibition of the focused library. Tubulin was incubated with each compound (1 μM) and the tubulin polymerization inhibition was monitored. Vmax was calculated from tubulin polymer generation curve data of Supplementary Fig. 3.

J774A.1 cells = experiment: Flow cytometry cell cycle analysis (PI staining); type: cell-based, murine
Procedure: NF-κB SEAP reporter HEK293T cell (Invivogen; hkb-mmcl) were seeded 10,000 cells/well at white 96-well plate (Falcon; 353296). HEK293 cells were transfected with a 1 to 1 ratio of 3xAP1pGL3 (Addgene; #40342) and pRL-TK (Promega; E2241) mixture using LTX plus (Invitrogen; 15338100) and opti-MEM (Gibco; 31985070) according to the manufacturer's protocol. After 24-h compound treatment or the overexpression of α-tubulin or GFP, 40 μl of the medium was transferred to a 96-well plate and mixed with 180 μl of quanti-blue solution (Invitrogen; rep-qbs) for the measurement of NF-κB activation. We measured the absorbance at 655 nm after 2-h incubation at 37 °C. To measure the AP-1 activation, cells were washed with PBS and lysed with 20 μl of 1× passive lysis buffer for 15 min. Luciferase signals were measured by dual-luciferase reporter assay system (Progema; E1980) using a microplate reader (BioTek; Synergy HTX). Expression levels of SEAP and AP-1 were normalized by renilla luciferase signal.
J774A.1 cells were treated with each compound for the designated time and dose. The cells were trypsinized and re-suspended in PBS containing 2% FBS (Gibco; #16000-044). To measure cell cycle arrest, the same number of the re-suspended cells was stained with propidium iodide (PI) (Abcam; ab14085) according to the manufacturer’s protocol. […]

T1 sequence (P05213 whole entry): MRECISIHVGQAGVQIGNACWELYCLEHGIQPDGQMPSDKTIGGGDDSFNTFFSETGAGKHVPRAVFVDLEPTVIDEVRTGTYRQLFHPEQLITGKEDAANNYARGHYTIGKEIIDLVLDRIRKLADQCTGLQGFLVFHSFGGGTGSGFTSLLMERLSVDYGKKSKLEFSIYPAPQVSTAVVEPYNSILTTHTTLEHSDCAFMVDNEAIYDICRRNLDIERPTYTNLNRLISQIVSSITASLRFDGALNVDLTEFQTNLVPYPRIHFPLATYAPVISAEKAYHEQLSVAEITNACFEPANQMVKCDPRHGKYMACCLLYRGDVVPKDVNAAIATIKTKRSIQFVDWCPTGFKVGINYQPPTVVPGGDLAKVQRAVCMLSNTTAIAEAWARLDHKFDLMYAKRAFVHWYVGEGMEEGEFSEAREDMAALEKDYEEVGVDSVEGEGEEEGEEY
T1 sequence (P99024 whole entry): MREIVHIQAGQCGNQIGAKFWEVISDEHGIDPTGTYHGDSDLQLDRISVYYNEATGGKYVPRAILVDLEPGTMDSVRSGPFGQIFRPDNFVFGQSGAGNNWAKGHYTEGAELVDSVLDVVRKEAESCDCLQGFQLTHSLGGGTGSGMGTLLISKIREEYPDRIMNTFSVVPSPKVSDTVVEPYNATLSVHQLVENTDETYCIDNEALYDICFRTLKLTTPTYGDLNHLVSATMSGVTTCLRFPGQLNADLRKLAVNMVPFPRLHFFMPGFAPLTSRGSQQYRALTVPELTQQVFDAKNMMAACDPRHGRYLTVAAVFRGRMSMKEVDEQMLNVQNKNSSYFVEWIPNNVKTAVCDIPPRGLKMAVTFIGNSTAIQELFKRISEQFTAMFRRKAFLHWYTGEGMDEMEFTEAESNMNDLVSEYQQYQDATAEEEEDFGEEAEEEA
T2 sequence (P02554 whole entry): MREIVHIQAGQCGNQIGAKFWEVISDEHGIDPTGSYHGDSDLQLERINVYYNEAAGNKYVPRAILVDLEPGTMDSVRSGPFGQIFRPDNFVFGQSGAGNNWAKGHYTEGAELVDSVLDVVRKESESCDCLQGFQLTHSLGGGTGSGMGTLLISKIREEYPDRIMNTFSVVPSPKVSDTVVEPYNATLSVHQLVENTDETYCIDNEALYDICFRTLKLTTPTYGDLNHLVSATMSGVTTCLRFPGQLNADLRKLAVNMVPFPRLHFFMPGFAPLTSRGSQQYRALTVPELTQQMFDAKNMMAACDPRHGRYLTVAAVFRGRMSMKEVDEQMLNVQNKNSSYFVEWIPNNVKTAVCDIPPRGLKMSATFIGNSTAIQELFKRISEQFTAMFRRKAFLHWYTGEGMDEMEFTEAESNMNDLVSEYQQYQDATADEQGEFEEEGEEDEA
T2 sequence (P02550 whole entry): as the sequence (P05213 whole entry) above, with L136S, S232G, I265A, S340T, Q358E counted along it

COc1ccc2c(c1O)OC(C)(C)C=C2c1cccc2c1oc1ccccc12 [Compound 8]
Interaction between p65 and α-tubulin [1]: increased | Vmax of microtubule polymerization compared to DMSO control (tubulin): significantly inhibited tubulin polymerization | Cell cycle arrest (J774A.1 cells): no cell cycle arrest
